Reference: paper PMC6377692 (EJNMMI Research, 2019)
Values joined by “and” are separate entries in the source; they are usually repeats but may differ in a detail not shown here. Equal values may be shown once. Bridge positions count the residues as written; N and C are the ends. Square brackets hold non-standard residues; d marks the D form. Peptide text beside a SMILES is read from it. * marks the point of attachment. DO3A(CH2CH2SO2CH2CH2) = O=C(O)CN1CCN(CCS(=O)(=O)CC*)CCN(CC(=O)O)CCN(CC(=O)O)CC1; Ala(4-thiazolyl) = N[C@@H](Cc1cscn1)C(=O)O

Tests used:
[1] = biological target: T1, HEK293 cells transfected with human GCGR (Homo sapiens, UniProt P47871); assay: cellular internalization assay; format: cell-based
T1 construct: expressed in transfected cells; host or cells: HEK293
T1 sequence (P47871 26-477): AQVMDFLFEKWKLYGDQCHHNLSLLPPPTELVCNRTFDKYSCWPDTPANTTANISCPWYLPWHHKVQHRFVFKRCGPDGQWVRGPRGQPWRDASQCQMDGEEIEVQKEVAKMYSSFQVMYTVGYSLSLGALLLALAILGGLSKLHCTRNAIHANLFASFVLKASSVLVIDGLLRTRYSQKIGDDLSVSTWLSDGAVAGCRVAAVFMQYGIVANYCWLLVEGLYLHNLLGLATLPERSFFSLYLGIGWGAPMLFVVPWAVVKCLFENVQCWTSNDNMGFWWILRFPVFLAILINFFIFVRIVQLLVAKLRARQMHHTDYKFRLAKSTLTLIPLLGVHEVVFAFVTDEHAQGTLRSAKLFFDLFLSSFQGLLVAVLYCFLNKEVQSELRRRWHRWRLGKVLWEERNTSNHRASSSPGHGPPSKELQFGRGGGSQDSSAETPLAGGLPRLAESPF
Method: The assay was also performed at 4 °C (5% CO2) for 60 and 120 min to suppress internalization. The exact number of cells in each well was assessed by cell counter. After incubation, the hot media containing the radioligand was removed and the cells washed with serum-free media two to three times while cells were put on ice.
To measure membrane bound and internalized radioligand, cells were treated first with 0.2 M glycine buffer containing 4 M urea (pH 2.5) (acid wash buffer) and secondly 1 M NaOH (basic wash buffer).
Briefly, first 0.5 mL of acid wash buffer was added to the cells and allowed to incubate for 5 min on ice. The supernatant was then removed and measured in a well counter (membrane bound fraction) (Uppsala Imanet AB, Uppsala, Sweden). The cells were washed one time, before 0.5 mL of basic wash buffer was added and allowed to incubate for 30 min at 37 °C. Then, the detached cells were collected and measured by well counter (internalized fraction). All samples were repeated in triplicates.
The well counter data for each dish and condition was decay corrected to the time at the start of each experiment and expressed as Bq. The internalized and the total cell-associated (internalized + cell membrane bound) fractions were expressed as percentage of the total added radioligand per million of cells (%ID/M cells). […]

[2] = biological target: T2, GCGR in human liver sections (Homo sapiens, UniProt P47871); assay: in vitro autoradiography, liver sections; format: binding
T2 construct: tissue Uppsala Biobank (sample collection 827); host or cells: frozen human liver sections
T2 sequence (P47871 26-477): as above
Method: (§1) Biopsies from donor human liver and pancreas were obtained from Uppsala Biobank (sample collection 827), and their use was approved by local ethical review board (EPN 2015/401).
(§2) Sections were added in duplicates in each individual assay, and each experiment was repeated at least three times with different batches of radioligand, except for rat sections that were only performed in one assay.
(§3) After incubation, the sections were washed three times in 150 mL PBS. Sections were carefully dried at 37 °C and then exposed against a digital phosphorimager plate overnight together with a 10-μl droplet of radioactive reference (cross-calibrated against a gamma counter) on an absorbent paper attached to an object glass. The phosphor imager plates were scanned using a Cyclone Plus Phosphor imager (Perkin Elmer) at 600 dpi, and the resulting autoradiograms analyzed by ImageJ software (NIH, Bethesda). Pixel values in counts/mm^2 were converted to Bq/mm^2 by the included reference. Bq/mm^2 was further converted to fmol/mm^2 by the known specific radioactivity (fmol/Bq) of each batch of radiopharmaceutical.

[3] = system: GCGR in NHP liver sections; assay: in vitro autoradiography, liver sections; format: binding, cynomolgus monkey (NHP)
Method: (§4) Liver and pancreas tissues were collected post-mortem from cynomolgus monkeys (NHP) and Sprague Dawley rats. The use of animal tissues collected post-mortem was approved by the Animal Research Ethical Committee of the Uppsala Region and was performed according to the Uppsala university guidelines on animal experimentation (UFV 2007/724).
as §2, §3

[4] = biological target: T3, GCGR in rat liver sections (Rattus norvegicus, UniProt P30082); assay: in vitro autoradiography, liver sections; format: binding, Sprague Dawley rat
T3 construct: from tissue; host or cells: frozen Sprague Dawley rat liver sections
T3 sequence (P30082 27-485): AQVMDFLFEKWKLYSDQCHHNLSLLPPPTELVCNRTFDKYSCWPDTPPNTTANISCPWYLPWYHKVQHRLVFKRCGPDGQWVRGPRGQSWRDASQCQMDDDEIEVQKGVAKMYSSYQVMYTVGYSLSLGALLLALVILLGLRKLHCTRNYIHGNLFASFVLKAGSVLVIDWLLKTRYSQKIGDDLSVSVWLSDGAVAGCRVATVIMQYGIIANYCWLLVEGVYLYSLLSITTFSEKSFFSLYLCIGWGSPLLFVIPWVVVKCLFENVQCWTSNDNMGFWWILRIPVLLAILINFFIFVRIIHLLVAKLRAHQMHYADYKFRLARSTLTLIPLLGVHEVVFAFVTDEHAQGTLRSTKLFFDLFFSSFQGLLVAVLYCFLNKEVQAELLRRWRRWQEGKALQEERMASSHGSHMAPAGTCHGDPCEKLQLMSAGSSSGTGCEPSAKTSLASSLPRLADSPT
Method: as §4, §2, §3

[5] = in vitro autoradiography, pancreas sections; format: binding; conditions: human pancreas, 5–10 nM tracer, n = 3
Method: as §1, §2, §3

[6] = in vitro autoradiography, pancreas sections; format: binding, cynomolgus monkey (NHP); conditions: NHP pancreas, 5–10 nM tracer
Method: as §4, §2, §3

[7] = in vitro autoradiography, pancreas sections; format: binding, Sprague Dawley rat; conditions: rat pancreas, 5–10 nM tracer, n = 1
Method: as §4, §2, §3

[8] = rat in vivo distribution (ex vivo organ counting); design: species or system Sprague Dawley rats; conditions: male, Sprague Dawley, iv, total radioactivity, i.v.
Method: The in vivo distribution over time was performed to identify the optimal time point for an in vivo blocking study and to calculate the residence time for dosimetry (see detail below). Thus, measurement at more time points was prioritized over repetitions at individual time points.
The animals were kept at a constant temperature (25 °C) and humidity (50%) in a 12-h light-dark cycle. Food and water were provided ad libitum.
Each radiotracer was administered into the tail vein of conscious animals as a bolus in 0.5–0.6 mL of PBS (pH 7.4) as vehicle. […] Given the constraints of the specific radioactivity for each radioligand, the dosing was designed to minimize the given peptide mass (in order to stay below mass effect levels) while still yielding enough radioactive signal for well counter measurements.
At pre-determined post injection time points (5, 10, 20, 40, 60, 90, 120, and 180 min), two animals per each point were euthanized by CO2. Tissues were immediately extracted and weighed, and the radioactive content was measured in the well counter. […] The well counter readings were decay corrected to the time of injection and the mass of the extracted tissues and expressed as Bq/cc. […]

[9] = rat in vivo competition with precursor peptide; design: species or system Sprague Dawley rats; conditions: male, Sprague Dawley, total radioactivity, tracer alone, 40 min (S01) or 60 min (S02) p.i., S02 baseline stated for liver and spleen, read-out: baseline binding in the liver
Method: (§5) A competition study with each respective radiotracer precursor peptide was performed to investigate in vivo selectivity in selected tissues (the blood, heart, lung, liver, pancreas, spleen, kidney, muscle, and bone marrow).
(§6) Animals in each group (n = 4 for each radioligand) were co-injected with 1 mg/kg of either unlabelled DO3A-S01-GCG or -DO3A-S02-GCG peptide to determine the fraction of binding in each tissue which was receptor mediated.
(§7) The time point of euthanasia for each radiotracer was determined based on liver-to-blood ratio obtained from the biodistribution study above, as well as the radionuclide half-life and known radiotracer precursor half-life in blood plasma. Tissue resection and analysis of radioactive uptake in each tissue (expressed as SUV) were performed and analyzed as described above.

[10] = biological target: T4, GCG receptor (Rattus norvegicus, UniProt P30082); assay: rat in vivo competition with precursor peptide; design: species or system Sprague Dawley rats; conditions: 1 mg/kg unlabelled precursor
T4 construct: tissue Taconic, Denmark (animals); host or cells: organs of living Sprague Dawley rats (liver, spleen, bone marrow and others)
T4 sequence (P30082 27-485): as above
Method: as §5, §6, §7

SMILES: CC[C@H](C)[C@H](NC(=O)[C@H](Cc1ccccc1)NC(=O)[C@H](CCC(=O)O)NC(=O)[C@@H]1CCCCNC(=O)CC[C@H](NC(=O)[C@H](CC(=O)O)NC(=O)[C@H](CC(C)C)NC(=O)[C@H](CCC(N)=O)NC(=O)[C@H](CCCCN)NC(=O)[C@H](CO)NC(=O)[C@H](Cc2ccc(O)cc2)NC(=O)[C@H](CC(=O)O)NC(=O)[C@H](CO)NC(=O)[C@@H](NC(=O)[C@H](Cc2ccccc2)NC(=O)[C@@H](NC(=O)CNC(=O)[C@H](CCC(N)=O)NC(=O)[C@@H](CO)NC(=O)[C@@H](N)Cc2cscn2)[C@@H](C)O)[C@@H](C)O)C(=O)N[C@@H](CCC(N)=O)C(=O)N[C@@H](CCCNC(=N)N)C(=O)N[C@@H](C)C(=O)N1)C(=O)N[C@@H](CCC(=O)O)C(=O)N[C@@H](Cc1c[nH]c2ccccc12)C(=O)N[C@@H](CC(C)C)C(=O)N[C@@H](CC(C)C)C(=O)N[C@@H](C)C(=O)N[C@H](C(=O)NCC(=O)N1CCC[C@H]1C(=O)N[C@@H](CCC(=O)O)C(=O)N[C@@H](CO)C(=O)NCC(=O)N[C@@H](C)C(=O)N1CCC[C@H]1C(=O)N1CCC[C@H]1C(=O)N1CCC[C@H]1C(=O)N[C@@H](CO)C(=O)N[C@@H](CSCCS(=O)(=O)CCN1CCN(CC(=O)O)CCN(CC(=O)O)CCN(CC(=O)O)CC1)C(N)=O)[C@@H](C)O [[^68Ga]Ga-DO3A-S01-GCG, metal not drawn] (H-[Ala(4-thiazolyl)][dS]QGTFTSDYSKQLDEQRAKEFIEWLLATGPESGAPPPSC(DO3A(CH2CH2SO2CH2CH2))-NH2; lactam 16-20)
- binding to GCGR-transfected cells at steady state / plateau (total cell-associated) ([1]; 3–7 nM tracer, RT, after 60–120 min (S01) or 60 min (S02), triplicates, 3 batches): approximately 65 % ID/million cells
- effect of cooling on internalization ([1]; 4 °C, 60 and 120 min): suppressed almost completely
- effect of GLP-1 in excess on tracer binding to liver sections ([2]; 1 μM GLP-1, n = 3): did not induce inhibition
- inhibition of tracer binding to liver sections by co-incubation with own precursor peptide ([2]; 10 μM precursor, n = 3): did not increase the degree of inhibition
- effect of GLP-1 in excess on tracer binding to liver sections ([3]; 1 μM GLP-1): did not induce inhibition
- inhibition of tracer binding to liver sections by co-incubation with own precursor peptide ([3]; 10 μM precursor): did not increase the degree of inhibition
- inhibition of tracer binding to liver sections by co-incubation with GCG ([3]; 5–10 nM tracer, 10 μM GCG, 60 min RT, n = 3 (S01), n = 4 (S02)): > 60%
- effect of GLP-1 in excess on tracer binding to liver sections ([4]; 1 μM GLP-1, n = 1): did not induce inhibition
- inhibition of tracer binding to liver sections by co-incubation with own precursor peptide ([4]; 10 μM precursor, n = 1): did not increase the degree of inhibition
- binding in pancreas sections [5]: Only background binding
- binding in pancreas sections [6]: Only background binding
- binding in pancreas sections [7]: Only background binding
- SUV ([8]; liver, 3.6 ug/kg, after 20 min, read-out: uptake in the liver, plateau): 3 SUV
- tissue to tissue ratio ([8]; liver/blood, after 90 min): > 30
- SUV [9]: > 2 SUV
- decrease of binding in the spleen by co-injection of precursor peptide ([10]; 40 min (S01) or 60 min (S02) p.i., n = 4 per group): > 80%
- decrease of binding in the liver by co-injection of precursor peptide ([10]; 40 min (S01) or 60 min (S02) p.i., n = 4 per group, 1 mg/kg): > 80% and 84%
- effect of co-injection of precursor peptide on kidney uptake ([10]; 40 min p.i.): not affected
- decrease of binding in the bone marrow by co-injection of precursor peptide ([10]; 40 min p.i., n = 4 per group): > 80%
